Measurements published in patent publication EP3409278B1, “HETEROCYCLIC PROTEIN KINASE INHIBITORS” (Tolero Pharmaceuticals, Inc., priority 2011, dated 2013).

molecular target: Pim-1 kinase (Homo sapiens, UniProt P11309); test: Pim-1 kinase inhibition assay (Promega Kinase-Glo); format: biochemical; details: not given
Text: One illustrative manner in which Pim-1 kinase activity can be determined is by quantifying the amount of ATP remaining in solution after an in vitro Pim-1 kinase reaction. The Kinase-Glo Assay Kit (Promega, Inc., Madison, WI) allows this. The amount of ATP remaining in the solution after the kinase reaction serves as a substrate for the luciferase to catalyze luciferin to oxyluciferin plus one photon of light. Thus, the luminescent signal read by the Luminoskan Ascent Instrument (Thermo Electron Corp., Milford, MA) correlates with the amount of ATP present after the kinase reaction and inversely correlates with the amount of kinase acitivity. […] These assays are set up in duplicate 50ul volumes in white, flat bottom 96 well plates. […] This solution is incubated at 30 degrees Celsius at 360rpm for two hours. Following the incubation, 50ul of Kinase-Glo reagent is added to each well, including all positive and negative control wells, and incubated at room temperature for 15 minutes. […] The IC50 values can then be calculated for each inhibitor tested.

Chain of Pim-1 kinase (P11309 whole entry): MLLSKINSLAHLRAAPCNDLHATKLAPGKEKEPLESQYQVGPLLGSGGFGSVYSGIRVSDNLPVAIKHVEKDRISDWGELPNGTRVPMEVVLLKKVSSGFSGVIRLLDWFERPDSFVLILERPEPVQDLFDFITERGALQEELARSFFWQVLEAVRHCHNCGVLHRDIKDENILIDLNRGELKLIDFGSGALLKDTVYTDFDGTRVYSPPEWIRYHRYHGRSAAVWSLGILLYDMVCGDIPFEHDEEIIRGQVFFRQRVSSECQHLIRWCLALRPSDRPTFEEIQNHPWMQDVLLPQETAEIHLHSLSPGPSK

Row | SMILES | IC50 [nM]
1 | OCCN1CCC(CNc2ccc3ncc(-c4cccc(OC(F)(F)F)c4)n3n2)CC1 [8-27, 2-(4-(((3-(3-(Trifluoromethoxy)phenyl)imidazo[1,2-b]pyridazin-6-yl)amino)methyl)piperidin-1-yl)ethanol] | 23
2 | FC1(F)CCC(CNc2ccc3ncc(-c4cccc(OC(F)(F)F)c4)n3n2)CC1 [8-17, N-((4,4-difluorocyclohexyl)methyl)-3-(3-(trifluoromethoxy)phenyl)imidazo[1,2-b]pyridazin-6-amine] | 173

same assay, conditions: Table IV; Kinase-Glo, 10uM ATP; read-out: IC50 on Pim1

Row | IC50 [nM] | SMILES
3 | 58 | O=S1(=O)CCC(CNc2ccc3ncc(-c4cccc(OC(F)(F)F)c4)n3n2)CC1 [8-13, 4-(((3-(3-(Trifluoromethoxy)phenyl)imidazo[1,2-b]pyridazin-6-yl)amino)methyl)tetrahydro-2H-thiopyran 1,1-dioxide]
4 | 68 | CO[C@H]1CC[C@H](Nc2ccn3ncc(-c4cccc(Cl)c4)c3n2)CC1 [8-64, 3-((3-Chlorophenyl)-N-4-methoxy-trans-cyclohexyl)pyrazolo[1,5-a]pyrimidin-5-amine]
5 | 553 | FC(F)(F)Oc1cccc(-c2cnc3ccc(OCC4CCOCC4)nn23)c1 [8-28, 6-((Tetrahydro-2H-pyran-4-yl)methoxy)-3-(3-(trifluoromethoxy)phenyl)imidazo[1,2-b]pyridazine]
6 | 9 | CC(C)(O)[C@H]1CC[C@H](Nc2ccc3ncc(-c4cccc(OC(F)(F)F)c4)n3n2)CC1 [8-10]
7 | 204 | CC(C)(O)[C@H]1CC[C@H](Nc2ccn3ncc(-c4cccc(OC(F)(F)F)c4)c3n2)CC1 [8-47]
8 | 4 | N[C@H]1CC[C@H](Nc2ccc3ncc(-c4cccc(Cl)c4)n3n2)CC1 [8-68, N1-(3-(3-Chlorophenyl)imidazo[1,2-b]pyridazin-6-yl)cyclohexane-1,4-trans-diamine]
9 | 36 | O[C@@H]1CC[C@@H](Nc2ccc3ncc(-c4cccc(OC(F)(F)F)c4)n3n2)C1 [8-5, (1R,3R)3-((3-(3-(Trifluoromethoxy)phenyl)imidazo[1,2-b]pyridazin-6-yl)amino)cyclopentanol]
10 | 10 | O[C@H]1C[C@H](CNc2ccc3ncc(-c4cccc(OC(F)(F)F)c4)n3n2)C1 [8-7, 3-(((3-(3-(Trifluoromethoxy)phenyl)imidazo[1,2-b]pyridazin-6-yl)amino)methyl)-trans-cyclobutanol]
11 | 16 | CC(C)(O)C(=O)N1CCC(CNc2ccc3ncc(-c4cccc(OC(F)(F)F)c4)n3n2)CC1 [8-20, 2-Hydroxy-2-methyl-1-(4-(((3-(3-(trifluoromethoxy)phenyl)imidazo[1,2-b]pyridazin-6-yl)amino)methyl)piperidin-1-yl)propan-1-one]
12 | 5 | N[C@H]1CC[C@H](Nc2ccn3ncc(-c4cccc(OC(F)(F)F)c4)c3n2)CC1 [8-52, N-(3-(3-(Trifluoromethoxy)phenyl)pyrazolo[1,5-a]pyrimidin-5-yl)cyclohexane-1,4-trans-diamine]
13 | 17 | CC(C)(O)[C@H]1CC[C@H](Nc2ccn3ncc(-c4cccc(C(F)(F)F)c4)c3n2)CC1 [8-56]
14 | 48 | Clc1cccc(-c2cnc3ccc(NC4CCOCC4)nn23)c1 [8-39, 3-(3-Chlorophenyl)-N-(tetrahydro-2H-pyran-4-yl)imidazo[1,2-b]pyridazin-6-amine]
15 | 13 | FC(F)(F)Oc1cccc(-c2cnc3ccc(NCC4CCOCC4)nn23)c1 [8-19, N-((tetrahydro-2H-pyran-4-yl)methyl)-3-(3-(trifluoromethoxy)phenyl)imidazo[1,2-b]pyridazin-6-amine]
16 | 226 | CC(C)(O)CCOc1ccc2ncc(-c3cccc(OC(F)(F)F)c3)n2n1 [8-41, 2-Methyl-4-((3-(3-(Trifluoromethoxy)phenyl)imidazo[1,2-b]pyridazin-6-yl)oxy)butan-2-ol]
17 | 18 | CO[C@H]1CC[C@H](Nc2ccc3ncc(-c4cccc(Cl)c4)n3n2)CC1 [8-38, 3-(3-Chlorophenyl)-N-(4-trans-methoxycyclohexyl)imidazo[1,2-b]pyridazin-6-amine]
18 | 148 | O=S1(=O)CCC(CNc2ccn3ncc(-c4cccc(OC(F)(F)F)c4)c3n2)CC1 [8-51, 4-(((3-(3-(Trifluoromethoxy)phenyl)pyrazolo[1,5-a]pyrimidin-5-y/)amino)methyl)tetrahydro-2H-thiopyran 1,1-dioxide]

Row | SMILES | IC50 [nM]
19 | CO[C@H]1CC[C@H](Nc2ccn3ncc(-c4cccc(OC(F)(F)F)c4)c3n2)CC1 [8-49, 4-(trans-Methoxycyclohexyl)-3-(3-(trifluoromethoxy)phenyl)pyazolo[1,5-a]pyrimidin-5-amine] | 378

same assay, conditions: Table V; Kinase-Glo, 10uM ATP; read-out: IC50 on Pim1

Row | SMILES | IC50 [nM]
20 | O[C@H]1CC[C@H](Nc2ccc3nnc(-c4cccc(C(F)(F)F)c4)n3c2)CC1 [8-107, 4-((3-(3-(Trifluoromethyl)phenyl)-[1,2,4]triazolo[4,3-a]pyridin-6-yl)amino)-trans-cyclohexanol] | 3950
21 | CC(C)(O)[C@H]1CC[C@H](Nc2ccc3nnc(-c4cccc(OC(F)(F)F)c4)n3c2)CC1 [8-101] | 488

test system: MOLM-13; test: In vitro viability assay, MOLM-13; format: cell-based; details: not given
Method: (§1) Adherent or suspension cancer cell lines were seeded at 2000-5000 cells/well in a 96-well plate, or 1000-2000 cells/well in a 384-well plate. Suspension cells were treated with drug the same day as seeding, while adherent cells were incubated overnight at 37°Cin 5% CO2 prior to drug treatment. All cells were treated for 72 hours, then lysed with ATPlite (Perkin Elmer) and measured on an Envision microplate reader. IC50 values were determined using GraphPad Prism software.
(§2) Over 35 cell lines were tested, and the most sensitive cell lines from various indications were selected and verified by multiple EC50 determinations (Figure 6). […] Antiproliferative activity using PIM-2 shRNA against FLT3-ITD driven leukemia lines has been observed (Adam (2006) Cancer Res 66:3828-35 data not shown).

Row | SMILES | sensitivity in viability assay
22 | CC(C)(O)[C@H]1CC[C@H](Nc2ccc3ncc(-c4cccc(C(F)(F)F)c4)n3n2)CC1 [SGI-9481] | particularly sensitive

molecular target: hERG (Homo sapiens, UniProt Q12809); test: hERG Fast Patch assay (WuXiApptec); details: not given
Sequence (Q12809 whole entry): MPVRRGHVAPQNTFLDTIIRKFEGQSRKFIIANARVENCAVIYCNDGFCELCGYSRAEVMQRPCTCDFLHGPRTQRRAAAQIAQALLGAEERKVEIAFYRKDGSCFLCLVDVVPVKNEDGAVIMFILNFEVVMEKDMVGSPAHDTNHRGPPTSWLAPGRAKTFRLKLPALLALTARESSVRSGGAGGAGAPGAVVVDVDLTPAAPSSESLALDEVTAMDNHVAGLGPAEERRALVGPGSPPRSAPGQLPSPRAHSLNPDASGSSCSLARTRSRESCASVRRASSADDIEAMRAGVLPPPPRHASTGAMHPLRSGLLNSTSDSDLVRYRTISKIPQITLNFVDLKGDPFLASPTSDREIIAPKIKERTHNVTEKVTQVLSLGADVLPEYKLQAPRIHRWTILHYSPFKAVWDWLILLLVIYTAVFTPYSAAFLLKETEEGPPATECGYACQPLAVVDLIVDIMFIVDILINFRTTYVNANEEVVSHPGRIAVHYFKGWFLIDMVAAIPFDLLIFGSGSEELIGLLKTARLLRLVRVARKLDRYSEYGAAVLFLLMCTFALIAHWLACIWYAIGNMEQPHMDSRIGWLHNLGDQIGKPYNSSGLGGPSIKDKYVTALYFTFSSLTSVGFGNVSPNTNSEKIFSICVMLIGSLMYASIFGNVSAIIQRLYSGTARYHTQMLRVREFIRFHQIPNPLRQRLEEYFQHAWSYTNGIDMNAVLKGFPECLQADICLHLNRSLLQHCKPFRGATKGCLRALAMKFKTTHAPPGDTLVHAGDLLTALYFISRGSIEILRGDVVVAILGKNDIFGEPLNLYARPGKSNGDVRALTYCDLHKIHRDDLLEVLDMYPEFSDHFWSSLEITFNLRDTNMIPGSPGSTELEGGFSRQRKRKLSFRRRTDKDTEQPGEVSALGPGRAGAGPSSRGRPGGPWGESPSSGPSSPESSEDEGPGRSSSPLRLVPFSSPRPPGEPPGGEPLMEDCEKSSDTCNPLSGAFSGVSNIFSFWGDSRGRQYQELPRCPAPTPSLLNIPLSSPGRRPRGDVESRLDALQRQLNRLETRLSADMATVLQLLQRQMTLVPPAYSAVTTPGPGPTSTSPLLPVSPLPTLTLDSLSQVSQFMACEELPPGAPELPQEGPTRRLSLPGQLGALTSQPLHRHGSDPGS

Row | SMILES | IC50 [nM]
23 | O=S1(=O)CCC(CNc2ccc3ncc(-c4cccc(OC(F)(F)F)c4)n3n2)CC1 [8-13, 4-(((3-(3-(Trifluoromethoxy)phenyl)imidazo[1,2-b]pyridazin-6-yl)amino)methyl)tetrahydro-2H-thiopyran 1,1-dioxide] | 10000
24 | C[C@]1(O)CC[C@H](Nc2ccc3ncc(-c4cccc(OC(F)(F)F)c4)n3n2)CC1 [8-9, 1-Methyl-4-((3-(3-(trifluoromethoxy)phenyl)imidazo[1,2-b]pyridazin-6-yl)amino)-trans-cyclohexanol] | 26000
25 | CO[C@H]1CC[C@H](Nc2ccn3ncc(-c4cccc(Cl)c4)c3n2)CC1 [8-64, 3-((3-Chlorophenyl)-N-4-methoxy-trans-cyclohexyl)pyrazolo[1,5-a]pyrimidin-5-amine] | > 30000
26 | CC(C)(O)[C@H]1CC[C@H](Nc2ccc3ncc(-c4cccc(OC(F)(F)F)c4)n3n2)CC1 [8-10] | > 30000

test system: MV-4-11; test: In vitro viability assay, MV-4-11; format: cell-based; details: not given
Method: as §1, §2

Row | SMILES | sensitivity in viability assay
27 | CC(C)(O)[C@H]1CC[C@H](Nc2ccc3ncc(-c4cccc(C(F)(F)F)c4)n3n2)CC1 [SGI-9481] | particularly sensitive
